Marks after values point to notes of the source that are not given here.
Legend:
IL-17A mRNA expression = assay: Ex-vivo human skin model, IL-17A mRNA expression; format: cell-based; conditions: Th17 cytokine cocktail 24 h, RT-PCR
Description: (§1) Fresh ex vivo human skin from healthy bariatric patients, that underwent abdominoplasty skin removal, was de-fatted and dermatomed at 750 μm. Dermatomed skin was incubated twice for 5-10 minutes at room temperature in PBS containing a antibiotic/antimycotic solution: Fungizone (Invitrogen #15290018), PSG (Fisher #BW17718R) and Gentamicin (Invitrogen #15750060). Skin was treated aseptically from this point on. Individual skin samples were obtained by 10 mm punch biopsy and placed in a 0.4 μm PCF membrane transwell (Millicell #PIHP01250) containing 30 μl of a 64% bovine collagen solution. After a 30 minute incubation at 37° C., which allows the collagen solution time to set, skin samples on transwells were transferred to 6-well plates (1 sample per well) and the lower chamber filled with 1 ml complete media (Cornification Media)+hydrocortisone (final concentration of 0.4 μg/ml) with or without test compounds at 10 μM (day −3) and allowed to rest overnight (16-18 h) at 37° C. Next, media was aspirated from the lower chamber, replaced with 1 ml complete media without hydrocortisone and incubated at 37° C. for 1 h. This constituted a ‘wash’ step. Following the hydrocortisone washout, media was again aspirated from the lower chamber and replaced with 1.0 ml complete media without hydrocortisone with or without GSK compounds at 10 μM (day −2). Cultures were incubated at 37° C. in a humidified chamber and media was refreshed one more day (day-1). The following day (day-0), cultures were stimulated for 24 h with a freshly made Th17 cytokine cocktail (CD3, 1 μg/ml, CD28, 2 μg/ml, IL-1b, 10 ng/ml, IL-6, 5 ng/ml, TGFb, 1 ng/ml, IL-21, 10 ng/ml, anti-IL-4, 1 μg/ml and anti-INFg, 1 μg/ml) with or without test compounds at 10 μM. Upon harvest (day +1), skin samples were minced with a razor blade and transferred to 1.5 ml RNAse-free tubes with 1 ml RNAlater solution until later analysis by RT-PCR (stored at −80 C).
(§2) Total RNA was isolated from about 30-40 mg of tissue using Qiagen's (Cat #74106) Mini RNA Isolation kit. Briefly, tissue was homogenized in the Precellys-24 machine using 300 μL of RLT buffer supplemented with 1% 2-Beta-Mercapto-Ethanol at 6300 rpm for 30 seconds for 6 cycles with a 2-minute ice break. 600 μL of water containing Proteinase K was added to the homogenate and digested at 55 C for 15 minutes. Digested tissue was spun down for 3 minutes at 10,000×g and the supernantant was used for RNA isolation using Qiagen's RNeasy mini columns according to manufacturer's protocol. 100 ng of RNA was used as template in a 20 μL PCR volume using Applied Biosciences RNA-to-CT 1 Step kit (AB Catalog #4392938) as well as the specific TaqMan probe for each gene to be quantified. Life Technologies FAM labeled Probes Catalog Numbers are as follows: ACTb=Hs01060665_g1, IL-17A=Hs00174383_m1, IL-17F=Hs00369400_m1, IL-22=Hs01574154_m1. All probes used (except for ACTb) expand an Exon. Applied Biosciences' Master Mix has a ROX dye internal control. OneStepPlus PCR machine was used for both the RT step and the 40 amplification cycles. RNA levels of gene of interest's relative expression were calculated using the Delta Delta CT formula.
(§3) First delta: Normalized to ACTb gene expression
(§4) Second delta: Normalized to sample 13 (Day 0+DMSO) for the gene of interest.

[1] = molecular target: T1, Human RORγ Ligand Binding Domain (RORγ-LBD) (Homo sapiens, UniProt P51449); assay: Dual Fluorescence Energy Transfer (FRET) assay: co-activator SRC1(2) peptide interaction with RORγ-LBD; format: biochemical; conditions: RORγ-LBD / SRC1(2) peptide, read-out: mean pIC50 (converted)
T1 construct: His6 with thrombin site) (N); made in house; host or cells: E. coli BL21(DE3), modified pET21a vector
T1 sequence (P51449 263-518): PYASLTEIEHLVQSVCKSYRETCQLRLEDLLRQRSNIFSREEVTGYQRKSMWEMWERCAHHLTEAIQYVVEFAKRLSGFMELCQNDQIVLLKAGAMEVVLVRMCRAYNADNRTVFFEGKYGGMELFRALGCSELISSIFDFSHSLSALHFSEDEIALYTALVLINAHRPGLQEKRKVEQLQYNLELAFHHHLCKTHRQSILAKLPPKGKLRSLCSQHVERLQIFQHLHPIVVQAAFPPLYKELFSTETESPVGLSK
Text: Dual Fluorescence Energy Transfer (FRET) Assay
This assay is based on the knowledge that nuclear receptors interact with cofactors (transcription factors) in a ligand dependent manner. RORγ is a typical nuclear receptor in that it has an AF2 domain in the ligand binding domain (LBD) which interacts with co-activators.
This assay measures ligand-mediated interaction of the co-activator peptide with the purified bacterial-expressed RORγ ligand binding domain (RORγ-LBD) to indirectly assess ligand binding. RORγ has a basal level of interaction with the co-activator SRC1(2) in the absence of ligand, thus, it is possible to find ligands that inhibit or enhance the RORγ/SRC1(2) interaction.
Human RORγ Ligand Binding Domain (RORγ-LBD) was expressed in E. coli strain BL21(DE3) as an amino-terminal polyhistidine tagged fusion protein. DNA encoding this recombinant protein was sub-cloned into a modified pET21a expression vector (Novagen).
Approximately 50 g E. coli cell pellet was resuspended in 300 mL of lysis buffer (30 mM imidazole pH 7.0 and 150 mM NaCl). Cells were lysed by sonication and cell debris was removed by centrifugation for 30 minutes at 20,000 g at 4° C. […] The clarified lysate was loaded onto a column (XK-26) packed with ProBond Nickel Chelating resin (InVitrogen), pre-equilibrated with 30 mM imidazole pH 7.0 and 150 mM NaCl. After washing to baseline absorbance with the equilibration buffer, the column was developed with a gradient from 30 to 500 mM imidazole pH 7.0. Column fractions containing the RORγ-LBD protein were pooled and concentrated to a volume of 5 mLs. The concentrated protein was loaded onto a Superdex 200 column pre-equilibrated with 20 mM Tris-Cl pH 7.2 and 200 mM NaCl. The fractions containing the desired RORγ-LBD protein were pooled together.
Purified RORγ-LBD was buffer exchanged by exhaustive dialysis [3 changes of at least 20 volumes (>8000×)] against PBS [100 mM NaPhosphate, pH 8 and 150 mM NaCl]. […] The modified RORγ-LBD was dialyzed against 2 buffer changes—TBS pH 8.0 containing 5 mM DTT, 2 mM EDTA and 2% sucrose—each at least 20 times of the volume. The modified protein was distributed into aliquots, frozen on dry ice and stored at −80° C. The biotinylated RORγ-LBD was subjected to mass spectrometric analysis to reveal the extent of modification by the biotinylation reagent.
Biotinylated SRC1(2) solution was prepared by adding an appropriate amount of biotinylated SRC1(2) from the 100 uM stock solution to a buffer containing 10 mM of freshly added DTT from solid to give a final concentration of 40 nM. An appropriate amount of Europium labeled Streptavidin was then added to the biotinylated SRC1(2) solution in a tube to give a final concentration of 10 nM. The tube was inverted gently and incubated for 15 minutes at room temperature. Twenty-fold excess biotin from the 10 mM stock solution was added and the tube was inverted gently and incubated for 10 minutes at room temperature.
Biotinylated RORγ-LBD solution was prepared by adding an appropriate amount of biotinylated RORγ-LBD from the stock solution to a buffer containing 10 mM of freshly added DTT from solid to give a final concentration of 40 nM. An appropriate amount of APC labeled Streptavidin was then added to the biotinylated RORγ-LBD solution in a tube to give a final concentration of 20 nM. The tube was inverted gently and incubated for 15 minutes at room temperature. Twenty-fold excess biotin from the 10 mM stock solution was then added and the tube was inverted gently and incubated for 10 minutes at room temperature.
The reaction mixtures were incubated for 5 minutes. […] The plates were incubated for 1 hour and then read on ViewLux in Lance mode for EU/APC.

IL-17F mRNA expression = assay: Ex-vivo human skin model, IL-17F mRNA expression; format: cell-based; conditions: Th17 cytokine cocktail 24 h, RT-PCR
Description: as §1, §2, §3, §4

IL-22 mRNA expression = assay: Ex-vivo human skin model, IL-22 mRNA expression; format: cell-based; conditions: Th17 cytokine cocktail 24 h, RT-PCR
Description: as §1, §2, §3, §4

IC50 [1]: 31.6 nM
SMILES: CCc1ccc(N(CC(C)C)S(=O)(=O)c2ccc(C(O)CN3CCOCC3)c(CO)c2)cc1 (racemic) [Example E123, N-(4-ethylphenyl)-4-(1-hydroxy-2-morpholinoethyl)-3-(hydroxymethyl)-N-isobutylbenzenesulfonamide]
Percentage of inhibition of IL-17A mRNA expression (IL-17A mRNA expression; Skin Donor 1, compound 10 μM): 76% * | Percentage of inhibition of IL-17A mRNA expression (IL-17A mRNA expression; Skin Donor 2, compound 10 μM): 92% * | Percentage of inhibition of IL-17A mRNA expression (IL-17A mRNA expression; Skin Donor 3, compound 10 μM): 73% * | Percentage of inhibition of IL-17A mRNA expression (IL-17A mRNA expression; Skin Donor 4, compound 10 μM): 91% * | Percentage of inhibition of IL-17F mRNA expression (IL-17F mRNA expression; Skin Donor 1, compound 10 μM): 55% * | Percentage of inhibition of IL-17F mRNA expression (IL-17F mRNA expression; Skin Donor 2, compound 10 μM): 84% * | Percentage of inhibition of IL-17F mRNA expression (IL-17F mRNA expression; Skin Donor 3, compound 10 μM): 65% * | Percentage of inhibition of IL-17F mRNA expression (IL-17F mRNA expression; Skin Donor 4, compound 10 μM): 87% * | Percentage of inhibition of IL-22 mRNA expression (IL-22 mRNA expression; Skin Donor 1, compound 10 μM): 63% * | Percentage of inhibition of IL-22 mRNA expression (IL-22 mRNA expression; Skin Donor 2, compound 10 μM): 57% | Percentage of inhibition of IL-22 mRNA expression (IL-22 mRNA expression; Skin Donor 3, compound 10 μM): 50% | Percentage of inhibition of IL-22 mRNA expression (IL-22 mRNA expression; Skin Donor 4, compound 10 μM): 68% *

From US9428452B2, “Compounds” (Glaxo Group Limited, priority 2012, dated 2016)
